Active and inactive are the calls of the source. The calls are words filed in the database; no cut-off is given here.
Legend:
NCI-H226 [1] = experiment: Growth inhibition of human NCI-H226 cells assessed as cell growth at 10^-8 M incubated for 48 hrs by sulforhodamine B assay relative to control; assay type: functional; conditions: NCI-H226, 48 h, read-out: Activity
OVCAR-5 [2] = experiment: Growth inhibition of human OVCAR5 cells assessed as cell growth at 10^-6 M incubated for 48 hrs by sulforhodamine B assay relative to control; assay type: functional; conditions: OVCAR-5, 48 h, read-out: Activity
HL-60 = experiment: Downregulation of HDAC1 mRNA expression in human HL60 cells by qRT-PCR method; assay type: functional, cell-based
A549 [3] = experiment: Growth inhibition of human A549/ATCC cells assessed as cell growth at 10^-6 M incubated for 48 hrs by sulforhodamine B assay relative to control; assay type: functional; conditions: A549, 48 h, read-out: Activity
MDA-MB-435 [4] = experiment: Downregulation of HDAC2 mRNA expression in human MDA-MB-435 cells by qRT-PCR method relative to control; assay type: functional
MDA-MB-435 [5] = experiment: Growth inhibition of human MDA-MB-435 cells assessed as cell growth at 10^-5 M incubated for 48 hrs by sulforhodamine B assay relative to control; assay type: functional; conditions: MDA-MB-435, 48 h, read-out: Activity
ACHN [6] = experiment: Growth inhibition of human ACHN cells assessed as cell growth at 10^-5 M incubated for 48 hrs by sulforhodamine B assay relative to control; assay type: functional; conditions: read-out: Activity
BT-549 = experiment: Growth inhibition of human BT549 cells incubated for 48 hrs by sulforhodamine B assay; assay type: functional; conditions: BT-549, 48 h
NCI-H226 [7] = experiment: Growth inhibition of human NCI-H226 cells assessed as cell growth at 10^-6 M incubated for 48 hrs by sulforhodamine B assay relative to control; assay type: functional; conditions: NCI-H226, 48 h, read-out: Activity
MOLT-4 = experiment: Growth inhibition of human MOLT4 cells assessed as cell growth at 10^-5 M incubated for 48 hrs by sulforhodamine B assay relative to control; assay type: functional; conditions: MOLT-4, 48 h, read-out: Activity
MCF7 = experiment: Growth inhibition of human MCF7 cells assessed as cell growth at 10^-6 M incubated for 48 hrs by sulforhodamine B assay relative to control; assay type: functional; conditions: MCF7, 48 h, read-out: Activity
HOP-62 = experiment: Growth inhibition of human HOP62 cells assessed as cell growth at 10^-7 M incubated for 48 hrs by sulforhodamine B assay relative to control; assay type: functional; conditions: HOP-62, 48 h, read-out: Activity
A549 [8] = experiment: Growth inhibition of human A549/ATCC cells assessed as cell growth at 10^-4 M incubated for 48 hrs by sulforhodamine B assay relative to control; assay type: functional; conditions: A549, 48 h, read-out: Activity
OVCAR-4 [9] = experiment: Growth inhibition of human OVCAR4 cells assessed as cell growth at 10^-6 M incubated for 48 hrs by sulforhodamine B assay relative to control; assay type: functional; conditions: OVCAR-4, 48 h, read-out: Activity
UO-31 = experiment: Growth inhibition of human UO31 cells assessed as cell growth at 10^-6 M incubated for 48 hrs by sulforhodamine B assay relative to control; assay type: functional; conditions: UO-31, 48 h, read-out: Activity
K562 [10] = experiment: Growth inhibition of human K562 cells incubated for 48 hrs by sulforhodamine B assay; assay type: functional; conditions: K562, 48 h
EKVX = experiment: Growth inhibition of human EKVX cells assessed as cell growth at 10^-8 M incubated for 48 hrs by sulforhodamine B assay relative to control; assay type: functional; conditions: read-out: Activity
K562 [11] = experiment: Growth inhibition of human K562 cells assessed as cell growth at 10^-6 M incubated for 48 hrs by sulforhodamine B assay relative to control; assay type: functional; conditions: K562, 48 h, read-out: Activity
RPMI-8226 = experiment: Growth inhibition of human RPMI8226 cells assessed as cell growth at 10^-4 M incubated for 48 hrs by sulforhodamine B assay relative to control; assay type: functional; conditions: RPMI-8226, 48 h, read-out: Activity
SF-268 = experiment: Growth inhibition of human SF268 cells incubated for 48 hrs by sulforhodamine B assay; assay type: functional; conditions: SF-268, 48 h
ACHN [12] = experiment: Growth inhibition of human ACHN cells incubated for 48 hrs by sulforhodamine B assay; assay type: functional
SN12C = experiment: Growth inhibition of human SN12C cells assessed as cell growth at 10^-6 M incubated for 48 hrs by sulforhodamine B assay relative to control; assay type: functional; conditions: read-out: Activity
OVCAR-5 [13] = experiment: Growth inhibition of human OVCAR5 cells assessed as cell growth at 10^-5 M incubated for 48 hrs by sulforhodamine B assay relative to control; assay type: functional; conditions: OVCAR-5, 48 h, read-out: Activity
OVCAR-4 [14] = experiment: Growth inhibition of human OVCAR4 cells assessed as cell growth at 10^-5 M incubated for 48 hrs by sulforhodamine B assay relative to control; assay type: functional; conditions: OVCAR-4, 48 h, read-out: Activity
MDA-MB-435 [15] = experiment: Downregulation of HDAC1 mRNA expression in human MDA-MB-435 cells by qRT-PCR method; assay type: functional, cell-based
SNB-19 = experiment: Growth inhibition of human SNB19 cells assessed as cell growth at 10^-6 M incubated for 48 hrs by sulforhodamine B assay relative to control; assay type: functional; conditions: SNB-19, 48 h, read-out: Activity
U-251 = experiment: Growth inhibition of human U251 cells incubated for 48 hrs by sulforhodamine B assay; assay type: functional; conditions: U-251, 48 h
HCT-116 = experiment: Growth inhibition of human HCT116 cells assessed as cell growth at 10^-5 M incubated for 48 hrs by sulforhodamine B assay relative to control; assay type: functional; conditions: HCT-116, 48 h, read-out: Activity
NCI-H322M = experiment: Growth inhibition of human NCI-H322M cells assessed as cell growth at 10^-6 M incubated for 48 hrs by sulforhodamine B assay relative to control; assay type: functional; conditions: read-out: Activity
MDA-MB-468 = experiment: Growth inhibition of human MDA-MB-468 cells incubated for 48 hrs by sulforhodamine B assay; assay type: functional; conditions: MDA-MB-468, 48 h
NCI-H23 = experiment: Growth inhibition of human NCI-H23 cells assessed as cell growth at 10^-5 M incubated for 48 hrs by sulforhodamine B assay relative to control; assay type: functional; conditions: NCI-H23, 48 h, read-out: Activity
[16] = read-out: LC50 (the source's name)
[17] = read-out: pLC50 (the source's name) (converted)

`CCS/C(Nc1ccccc1)=C(\C#N)C(=O)Nc1ccc(OC)cc1` was tested, and the growth at 0.01 µM (NCI-H226 [1]) was 95%, the growth at 1 µM (OVCAR-5 [2]) was 98% and the Activity (HL-60) was “Active”. For the same compound, the growth at 1 µM (A549 [3]) was 99%, the “fold change (FC)” value (MDA-MB-435 [4]) was “<=10” and the growth at 10 µM (MDA-MB-435 [5]) was -49%. For the same compound, the growth at 10 µM (ACHN [6]) was 33%, the GI50 (BT-549; read-out: GI50) was 2.8 µM and the CC50 (BT-549; [16]) was over 100 µM. For the same compound, the TGI (BT-549; read-out: TGI) was over 100 µM, the GI50 (BT-549; read-out: pGI50 (converted)) was 2.82 µM and the CC50 (BT-549; [17]) was over 100 µM. For the same compound, the TGI (BT-549; read-out: pTGI) was over 100 µM, the growth at 1 µM (NCI-H226 [7]) was 88% and the growth at 10 µM (MOLT-4) was 21%. It also gave a growth at 1 µM (MCF7) of 77%, a growth at 0.1 µM (HOP-62) of 84% and a growth at 100 µM (A549 [8]) of 15%. For the same compound, the growth at 1 µM (OVCAR-4 [9]) was 88%, the growth at 1 µM (UO-31) was 87% and the GI50 (K562 [10]; read-out: GI50) was 0.436 µM. For the same compound, the CC50 (K562 [10]; [16]) was over 100 µM, the TGI (K562 [10]; read-out: TGI) was over 100 µM and the GI50 (K562 [10]; read-out: pGI50 (converted)) was 0.437 µM. The CC50 (K562 [10]; [17]) was over 100 µM, the TGI (K562 [10]; read-out: pTGI) was over 100 µM and the growth at 0.01 µM (EKVX) was 89%. It also gave a growth at 1 µM (K562 [11]) of 29%, a growth at 100 µM (RPMI-8226) of 5% and a GI50 (SF-268; read-out: GI50) of 6.8 µM. The CC50 (SF-268; [16]) was over 100 µM, the TGI (SF-268; read-out: TGI) was over 100 µM and the GI50 (SF-268; read-out: pGI50 (converted)) was 6.76 µM. It also gave a CC50 (SF-268; [17]) of over 100 µM, a TGI (SF-268; read-out: pTGI) of over 100 µM and a GI50 (ACHN [12]; read-out: GI50) of 5.04 µM. It also gave a CC50 (ACHN [12]; [16]) of over 100 µM, a TGI (ACHN [12]; read-out: TGI) of over 100 µM and a GI50 (ACHN [12]; read-out: pGI50 (converted)) of 5.01 µM. The CC50 (ACHN [12]; [17]) was over 100 µM, the TGI (ACHN [12]; read-out: pTGI) was over 100 µM and the growth at 1 µM (SN12C) was 96%. For the same compound, the growth at 10 µM (OVCAR-5 [13]) was 33%, the growth at 10 µM (OVCAR-4 [14]) was 45% and the Activity (MDA-MB-435 [15]) was “Active”. It also gave a growth at 1 µM (SNB-19) of 84%, a GI50 (U-251; read-out: GI50) of 4.42 µM and a CC50 (U-251; [16]) of over 100 µM. The TGI (U-251; read-out: TGI) was over 100 µM, the GI50 (U-251; read-out: pGI50 (converted)) was 4.47 µM and the CC50 (U-251; [17]) was over 100 µM. For the same compound, the TGI (U-251; read-out: pTGI) was over 100 µM, the growth at 10 µM (HCT-116) was 3% and the growth at 1 µM (NCI-H322M) was 89%. For the same compound, the GI50 (MDA-MB-468; read-out: GI50) was 1.39 µM, the CC50 (MDA-MB-468; [16]) was over 100 µM and the TGI (MDA-MB-468; read-out: TGI) was 7.51 µM. For the same compound, the GI50 (MDA-MB-468; read-out: pGI50 (converted)) was 1.38 µM, the CC50 (MDA-MB-468; [17]) was over 100 µM and the TGI (MDA-MB-468; read-out: pTGI (converted)) was 7.59 µM. For the same compound, the growth at 10 µM (NCI-H23) was 34%.

— ChEMBL document CHEMBL4145553, “Design, synthesis, and biological evaluation of novel amide and hydrazide based thioether analogs targeting Histone deacteylase (HDAC) enzymes” (Eur J Med Chem, 2018)
